The values that follow come from ChEMBL document CHEMBL1201862, “PubChem BioAssay data set” (2004).

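Method: 48-hour compound exposure of cells in 96-well plates, five concentrations, linear interpolation of endpoints. Abbreviation: GI50, concentration required for 50% inhibition of growth.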 Calls of active or inactive are those of the source. Rule as the data show it: active = GI50 up to about 1.1 µM and inactive = higher. Bounds are passed on as bounds.

Test systems include NCI-H460; NCI-H226; MOLT-4; SF-295; MDA-MB-435; MDA-MB-231; OVCAR-3; EKVX; KM12; 786-0; SW-620; K562; SK-OV-3; UO-31; SNB-19; NCI-H23; MCF7; T47D; NCI/ADR-RES; A549.
Holding throughout (experiment): NCI-60 cell line screen, 48 h

Consider `S=C(S)NCCCn1ccnc1`, for which the GI50 in the test with NCI-H460, in the test with NCI-H226, in the test with MOLT-4, in the test with SF-295, in the test on MDA-MB-435 and with MDA-MB-231 was > 100 µM (inactive) in each case. For the same compound, the GI50 with OVCAR-3, in the test on EKVX, in the test on KM12, in the test with 786-0, with SW-620 and in the test with K562 was > 100 µM (inactive) throughout. Further, the GI50 with SK-OV-3, in the test on UO-31, in the test on SNB-19, with NCI-H23, in the test on MCF7 and with T47D was > 100 µM (inactive) in each case. In addition, the GI50 in the test on NCI/ADR-RES and with A549 was > 100 µM (inactive) in each case.
As for `CC(C)Cc1ccc(C(C)CC2=CCC(CN(C)C)C2=O)cc1` (stereo not given), the GI50 in the test on NCI-H460 was 31.7 µM (inactive); in the test on NCI-H226, 16.7 µM (inactive); in the test on MOLT-4 it was 2.34 µM (inactive); in the test on SF-295, 17.1 µM (inactive); in the test with MDA-MB-435, 8.13 µM (inactive); with MDA-MB-231 it was 10.5 µM (inactive). The GI50 with OVCAR-3 is 11.2 µM (inactive); in the test on EKVX it was 16.4 µM (inactive); in the test with KM12, 3.13 µM (inactive); in the test with 786-0, 1.79 µM (inactive); in the test with SW-620, 2.12 µM (inactive); in the test with K562 it was 2.25 µM (inactive). Moreover, the GI50 was 17.6 µM (inactive) with SK-OV-3; 16.4 µM (inactive) in the test on UO-31; 15.3 µM (inactive) with SNB-19; 12.9 µM (inactive) in the test with NCI-H23; 1.17 µM (inactive) with MCF7; 1.86 µM (inactive) with T47D. In addition, the GI50 in the test with NCI/ADR-RES is 16.9 µM (inactive); in the test on A549, 18.3 µM (inactive).
On to `O=C(CCN1CCCCC1)N1CCc2c([nH]c3ccccc23)C1c1cccnc1` (stereo not given), for which the GI50 in the test on NCI-H460 is 73.1 µM (inactive); in the test on NCI-H226, > 91.8 µM (inactive); in the test on MOLT-4, 47.1 µM (inactive); in the test on SF-295, 37.5 µM (inactive); in the test on MDA-MB-435, 35.5 µM (inactive); with MDA-MB-231, 34.1 µM (inactive). The GI50 with OVCAR-3 is > 100 µM (inactive); in the test with EKVX it was 52.7 µM (inactive); with KM12 it was > 100 µM (inactive); in the test on 786-0 it was 38.6 µM (inactive); in the test with SW-620, > 94 µM (inactive); in the test on K562, 30.8 µM (inactive). In addition, the GI50 is > 100 µM (inactive) with SK-OV-3; 38.3 µM (inactive) in the test with UO-31; > 100 µM (inactive) in the test with SNB-19; > 100 µM (inactive) with NCI-H23; 99.3 µM (inactive) in the test on MCF7; 64.1 µM (inactive) in the test on T47D. The GI50 was > 100 µM (inactive) in the test on NCI/ADR-RES and > 93.3 µM (inactive) in the test with A549.
Turning to `COc1cc(O)ccc1C(=S)SC`, the GI50 in the test with NCI-H460 was 77.6 µM (inactive); in the test with NCI-H226, 16 µM (inactive); with MOLT-4 it was 20.8 µM (inactive); with SF-295, 60.3 µM (inactive); with MDA-MB-435, 68.5 µM (inactive); in the test with MDA-MB-231, 16.2 µM (inactive). The GI50 is 62.4 µM (inactive) in the test with OVCAR-3; 11.4 µM (inactive) in the test with EKVX; 69.7 µM (inactive) with KM12; > 100 µM (inactive) in the test with 786-0; > 100 µM (inactive) in the test on SW-620; 52.8 µM (inactive) in the test with K562. For the same compound, the GI50 with SK-OV-3 is > 100 µM (inactive); with UO-31, 51.6 µM (inactive); with SNB-19 it was 78.2 µM (inactive); in the test with NCI-H23, 40.6 µM (inactive); with MCF7, > 100 µM (inactive); in the test on T47D, 70.3 µM (inactive). In addition, the GI50 in the test on NCI/ADR-RES is 38.9 µM (inactive); with A549 it was 38.8 µM (inactive).
On to `COC(=O)[C@@H]1OC(C)(c2ccccc2)O[C@H]1C(=O)OC`, for which the GI50 in the test on NCI-H460, with NCI-H226, in the test with MOLT-4, in the test with SF-295, with MDA-MB-435 and with MDA-MB-231 was > 100 µM (inactive) in each case. Also, the GI50 with OVCAR-3, in the test with EKVX, in the test on KM12, in the test on 786-0, in the test with SW-620 and in the test on K562 was > 100 µM (inactive) in each case. Also, the GI50 in the test on SK-OV-3, in the test on UO-31, in the test on SNB-19, in the test with NCI-H23, in the test on MCF7 and in the test with T47D was > 100 µM (inactive) each time. The GI50 in the test on NCI/ADR-RES and in the test with A549 was > 100 µM (inactive) each time.
`CC(=O)OC[C@@H](OC(C)=O)[C@@H](OC(C)=O)[C@H]1OC[C@@H]2C[C@H]([C@H]1OC(C)=O)N(Cc1ccccc1)O2`: the GI50 in the test with NCI-H460, in the test on NCI-H226, in the test with MOLT-4, in the test with SF-295, in the test with MDA-MB-435 and in the test on MDA-MB-231 was > 100 µM (inactive) throughout. Also, the GI50 in the test with OVCAR-3, in the test on EKVX, in the test with KM12, in the test with 786-0, in the test on SW-620 and with K562 was > 100 µM (inactive) throughout. Further, the GI50 with SK-OV-3 is 93.8 µM (inactive); in the test with UO-31, 61.7 µM (inactive); in the test with SNB-19, > 100 µM (inactive); in the test on NCI-H23, > 100 µM (inactive); with MCF7, > 100 µM (inactive); in the test with T47D, > 100 µM (inactive). Further, the GI50 in the test on NCI/ADR-RES and with A549 was > 100 µM (inactive) each time.
In the case of `C/C(=N\NC(=S)NNC(=S)N(C)c1ccccc1)c1ccccn1`, the GI50 is 0.681 µM (active) with NCI-H460; 1.41 µM (inactive) in the test on NCI-H226; 0.43 µM (active) in the test with MOLT-4; 2.94 µM (inactive) in the test on SF-295; 3.52 µM (inactive) with MDA-MB-435; 6.22 µM (inactive) in the test on MDA-MB-231. Moreover, the GI50 is 0.544 µM (active) in the test on OVCAR-3; 0.805 µM (active) in the test with EKVX; 4.21 µM (inactive) with KM12; 1.3 µM (inactive) with 786-0; 0.489 µM (active) in the test on SW-620; 2.31 µM (inactive) in the test on K562. Further, the GI50 in the test on SK-OV-3 was 1.48 µM (inactive); in the test on UO-31, 0.577 µM (active); in the test with SNB-19, 2.7 µM (inactive); in the test with NCI-H23, 2.79 µM (inactive); in the test with MCF7, 1.84 µM (inactive); with T47D it was 2.96 µM (inactive). For the same compound, the GI50 in the test on NCI/ADR-RES is 2.66 µM (inactive); in the test on A549, 1.11 µM (active).
For `CCCCN1C(=O)CC2[C@@H]3CCc4cc(OC)ccc4C3CC[C@]2(C)C1=O` (stereo not given in full), the GI50 with NCI-H460, with NCI-H226, with MOLT-4, in the test on SF-295, in the test on MDA-MB-435 and with MDA-MB-231 was > 10 µM (inactive) throughout. Besides, the GI50 in the test with OVCAR-3 was > 10 µM (inactive); in the test on EKVX it was > 10 µM (inactive); with KM12, > 10 µM (inactive); with 786-0, > 10 µM (inactive); in the test on SW-620, > 10 µM (inactive); with K562, 7.93 µM (inactive). Further, the GI50 in the test on SK-OV-3, in the test on UO-31, in the test with SNB-19, in the test with NCI-H23, in the test on MCF7 and with T47D was > 10 µM (inactive) each time. The GI50 in the test with NCI/ADR-RES and with A549 was > 10 µM (inactive) in each case.
In the case of `COC(=O)C1(Cc2ccc3c(c2)CCC3)Cc2ccccc2C1`, the GI50 in the test on NCI-H460 is 32.9 µM (inactive); in the test on NCI-H226, 29.9 µM (inactive); in the test with MOLT-4 it was 6.73 µM (inactive); in the test with SF-295, 27.4 µM (inactive); in the test on MDA-MB-435, 25.2 µM (inactive); in the test on MDA-MB-231, 35.1 µM (inactive). Moreover, the GI50 in the test with OVCAR-3 was 40.7 µM (inactive); in the test on EKVX it was 36.1 µM (inactive); in the test on KM12, 37.2 µM (inactive); in the test with 786-0, 37.8 µM (inactive); in the test with SW-620, 21.9 µM (inactive); with K562 it was 11.6 µM (inactive). The GI50 in the test with SK-OV-3 was 29.7 µM (inactive); in the test with UO-31, 33.7 µM (inactive); in the test with SNB-19, 48.5 µM (inactive); with NCI-H23, 34.7 µM (inactive); in the test with MCF7 it was 32.8 µM (inactive); with T47D, 24.6 µM (inactive). Further, the GI50 with NCI/ADR-RES is 44.1 µM (inactive); in the test with A549, 32.5 µM (inactive).
With `COc1cc2c(cc1[N+](=O)[O-])C(=O)C(Br)(Br)CCC2`, the GI50 in the test on NCI-H460 was 6.65 µM (inactive); with NCI-H226, 3.47 µM (inactive); in the test with MOLT-4, 0.354 µM (active); in the test on SF-295 it was 6.52 µM (inactive); in the test with MDA-MB-435 it was 2.81 µM (inactive); in the test with MDA-MB-231 it was 3.05 µM (inactive). Moreover, the GI50 with OVCAR-3 is 3.51 µM (inactive); in the test with EKVX it was 2.12 µM (inactive); with KM12, 3.78 µM (inactive); with 786-0, 1.26 µM (inactive); with SW-620 it was 1.88 µM (inactive); in the test on K562, 1.09 µM (active). The GI50 is 3.21 µM (inactive) in the test with SK-OV-3; 1.61 µM (inactive) with UO-31; 7.01 µM (inactive) in the test with SNB-19; 2.79 µM (inactive) in the test with NCI-H23; 2.22 µM (inactive) with MCF7; 2.68 µM (inactive) with T47D. For the same compound, the GI50 in the test on NCI/ADR-RES was 2.68 µM (inactive); in the test on A549, 4.37 µM (inactive).
